Data published in patent US11932606B2, “Anti-cancer/anti-fibrosis compounds” (THE REGENTS OF THE UNIVERSITY OF CALIFORNIA, priority 2017, dated 2024).
Where two headings read alike, the source gives them in different places.

Tests used:
[1] = test system: RS4;11; assay: AML cell viability (CellTiter-Glo, day 7); format: cell-based; details: Homo sapiens
Procedure: (§1) MV-4-11 cell (ATCC CRL-9591), RS4;11 (ATCC CRL-1873) and TG-1 (ATCC CRL1608) were acquired from ATCC. MOLM14 (ACC777) was acquired from DSMZ. All cells were plated (96-well) in triplicate at 5000 cells per well for testing (n=3) with compound. On day 3, an equal volume for all wells was split-back with fresh media and compound. On day 7, the CellTiter-Glo Luminescent Cell Viability Assay (Promega) was performed to measure the response. For cell viability assay, two independent experiments have been done.

[2] = test system: MOLM-14; assay: AML cell viability (CellTiter-Glo, day 7); format: cell-based; details: Homo sapiens
Procedure: as §1

[3] = test system: TG-1; assay: AML cell viability (CellTiter-Glo, day 7); format: cell-based
Procedure: as §1

[4] = test system: MV-4-11; assay: AML cell viability (CellTiter-Glo, day 7); format: cell-based; details: Homo sapiens
Procedure: as §1

[5] = test system: MV-4-11 cancer cell line; assay: Western blot of treated cells; format: cell-based
Procedure: For cell lines: All cells were plated (6-well) at 5×10^5 cells per well with medium containing 1% FBS overnight. And then Compound 29 was added in different concentrations with medium containing 1% FBS. After 16 hours, cells were lysed in M-per Mammalian Protein Extraction Reagent (78501, Thermo Fisher Scientific) containing protease and phosphatase inhibitors (88669, Thermo Fisher Pierce). Total protein concentration was measured using the Pierce BCA protein Assay Kit (#23227).
Proteins were separated on SDS-PAGE and transferred to nitrocellulose membrane. Immunoblotting were performed using specific antibodies: phosphor-Stat1-pS727 (8826, Cell signaling), total-Stat1 (14994, Cell signaling), Phospho-Stat3 (Tyr705) (9131, Cell signaling), Stat3 (9139, Cell signaling), pSTAT5-pS726 (ab128896, abcam), stat5 (94205, cell signaling), YAP (14074, Cell signaling), CYR61(14479, Cell signaling), CTGF (ab6992, Abcam), c-Myc (13987, Cell signaling), Mcl-1 (94296, Cell signaling) and GAPDH (AM4300, Invitrogen). (FIG. 1A, FIG. 1B, FIG. 1C). MV-4-11 cancer cell line was treated with compound 29 at various concentrations (30 nM up to 10 μM) for 24 hours and 48 hours, respectively.

[6] = test system: MSTO-211H; assay: Cell viability assay (CellTiter-Glo, day 7); format: cell-based; details: Homo sapiens, 168 h
Procedure: (§2) CLL-119, Hela, HCT116, MCF7, Colo205, SW620, H2052, MSTO-211H, U-251, Colo 357, OE33, Huh-7, A549, BT474, A204 and H290 cells were acquired from UCSF Cell and Genome Engineering Core. A549-Brm3 and H2030-Brm3 were from UCSF thoracic oncology lab. All cells were plated (96-well) in triplicate at 500 cells per well for testing (n=3) with compound. Medium was changed once on day 3. On day 7, the CellTiter-Glo Luminescent Cell Viability Assay (Promega) was performed to measure the response. For cell viability assay, two independent experiments have been done.

[7] = test system: A549; assay: Cell viability assay (CellTiter-Glo, day 7); format: cell-based; details: Homo sapiens, 168 h; A549, day 7
Procedure: as §2

[8] = test system: BT474; assay: Cell viability assay (CellTiter-Glo, day 7); format: cell-based; details: Homo sapiens, BT-474, 168 h; BT474, day 7
Procedure: as §2

[9] = test system: Hela; assay: Cell viability assay (CellTiter-Glo, day 7); format: cell-based; details: Homo sapiens, 168 h
Procedure: as §2

[10] = test system: HCT116; assay: Cell viability assay (CellTiter-Glo, day 7); format: cell-based; details: Homo sapiens, HCT-116, 168 h; HCT116, day 7
Procedure: as §2

[11] = test system: OE33; assay: Cell viability assay (CellTiter-Glo, day 7); format: cell-based; details: Homo sapiens, 168 h; OE33, day 7
Procedure: as §2

[12] = test system: MOLM-14 xenograft; assay: MOLM-14 mouse xenograft model; format: in vivo; details: 50 mg/kg orally b.i.d.
Procedure: 40 athymic nude mice (Taconic Biosciences) were injected with 5×10^6 MOLM-14 cells in 50% matrigel s.c. in flank. Cell Injection Volume is 0.2 ml/mouse for MOLM-14. Age of mice at start date is 12-14 weeks. Perform a pair match when tumors grows after two weeks and begin treatment. Compound 29 was dissolved in saline and was given orally twice a day on a schedule of five days on/two days off for three weeks. Body weight and tumor size were measured every other day when mice being treated. After the last administration, mice were euthanized for tumor collection. […] In the MOLM-14 xenograft model, mice were treated with compound 29 at 50 mg/kg for 21 days (orally, b.i.d). The tumor volume from control and vehicle group was measured. […] Body weights of mice in both groups were measured and plotted.

[13] = target: HIPK2 (Homo sapiens (Human), UniProt Q9H2X6); assay: HIPK2 enzymatic activity inhibition (Z'-LYTE); format: biochemical; details: read-out: HIPK2 IC50
HIPK2, sequence (Q9H2X6 whole entry): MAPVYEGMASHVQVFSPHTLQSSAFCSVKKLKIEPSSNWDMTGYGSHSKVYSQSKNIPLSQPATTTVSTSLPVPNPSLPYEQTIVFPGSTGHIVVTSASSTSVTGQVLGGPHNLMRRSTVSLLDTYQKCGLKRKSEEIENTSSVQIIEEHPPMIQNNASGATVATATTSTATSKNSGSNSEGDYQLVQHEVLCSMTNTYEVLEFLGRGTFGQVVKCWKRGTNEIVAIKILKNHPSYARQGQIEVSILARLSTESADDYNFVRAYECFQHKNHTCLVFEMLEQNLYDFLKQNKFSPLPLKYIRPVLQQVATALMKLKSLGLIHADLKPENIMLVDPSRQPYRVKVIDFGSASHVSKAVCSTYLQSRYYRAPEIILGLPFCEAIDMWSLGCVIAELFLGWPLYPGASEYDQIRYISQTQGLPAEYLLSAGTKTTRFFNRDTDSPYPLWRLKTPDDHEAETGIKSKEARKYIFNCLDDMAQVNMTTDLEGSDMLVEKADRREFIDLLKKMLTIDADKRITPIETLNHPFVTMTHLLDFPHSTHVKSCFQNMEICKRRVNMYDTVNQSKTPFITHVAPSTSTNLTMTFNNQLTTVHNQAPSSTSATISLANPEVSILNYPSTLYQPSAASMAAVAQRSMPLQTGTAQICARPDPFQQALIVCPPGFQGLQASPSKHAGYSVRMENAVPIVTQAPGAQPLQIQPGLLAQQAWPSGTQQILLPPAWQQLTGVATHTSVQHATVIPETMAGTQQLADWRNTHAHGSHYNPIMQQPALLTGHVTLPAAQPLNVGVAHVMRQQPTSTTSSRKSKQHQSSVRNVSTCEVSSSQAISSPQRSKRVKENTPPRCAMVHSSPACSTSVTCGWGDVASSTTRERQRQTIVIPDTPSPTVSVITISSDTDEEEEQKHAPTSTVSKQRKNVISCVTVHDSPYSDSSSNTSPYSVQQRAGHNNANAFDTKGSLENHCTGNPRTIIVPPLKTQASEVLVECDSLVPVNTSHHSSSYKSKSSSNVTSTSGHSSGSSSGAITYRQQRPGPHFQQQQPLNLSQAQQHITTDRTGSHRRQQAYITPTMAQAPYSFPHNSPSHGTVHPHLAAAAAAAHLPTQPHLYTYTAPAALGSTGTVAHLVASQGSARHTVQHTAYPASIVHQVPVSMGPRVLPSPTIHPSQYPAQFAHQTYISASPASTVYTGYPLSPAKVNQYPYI
Procedure: HIPK2 Enzymatic Activity Inhibition: Determination of IC50 Values for Selected Compounds
The half maximal inhibitory concentration (IC50) with respect to HIPK2 inhibition was determined for the compounds of the invention by using Z′-LYTE™ from ThermoFisher Scientific's SelectScreen™ Biochemical Kinase Profiling Service (Waltham, MA). Compounds were screened in 1% DMSO (final) in the well. For 10 point titrations, 3-fold serial dilutions were conducted from the starting concentration. The 2×HIPK2/Ser/Thr 09 mixture was prepared in 50 mM HEPES pH 7.5, 0.01% BRIJ-35, 10 mM MgCl2, 1 mM EGTA.
100 nL of 100× test compound in 100% DMSO, 2.4 uL of kinase buffer (50 mM HEPES pH 7.5, 0.01% BRIJ-35, 10 mM MgCl2, 1 mM EGTA), 5 uL of 2×HIPK2/Ser/Thr 09 mixture, and 2.5 uL of 4×ATP solution were mixed and agitated for 30 seconds. Then the Kinase Reaction was incubated at room temperature for 60 minutes. […] After 30 second of plate shake, the reaction plate was incubated for another 60 min at room temperature. Then the plate was read on a fluorescence plate reader (CLARIOstar, BMG Labtech, Germany) as plate reader and data was analyzed using XLfit from IDBS.

Molecule `Nc1nccc2c(Br)cc3cc(C(=O)[O-])ccc3c12.[Na+]` [Compound 29, Sodium 1-amino-5-bromobenzo[h]isoquinoline-8-carboxylate] has an IC50 ([1]; 168 h, RS4;11, day 7, read-out: Cell viability IC50) of under 1000 nM, an IC50 ([1]; RS4;11, text statement, read-out: potency in cell viability assay) of under 1000 nM and an IC50 ([2]; 168 h, MOLM-14, day 7, read-out: Cell viability IC50) of under 1000 nM. The IC50 ([2]; MOLM-14, text statement, read-out: potency in cell viability assay) was under 1000 nM, the IC50 ([3]; TG1, 168 h, TG-1, day 7, read-out: Cell viability IC50) was under 1000 nM and the IC50 ([3]; TG1, TG-1, text statement, read-out: potency in cell viability assay) was under 1000 nM. The IC50 ([4]; MV4-11, 168 h, MV-4-11, day 7, read-out: Cell viability IC50) was under 1000 nM, the IC50 ([4]; MV4-11, MV-4-11, text statement, read-out: potency in cell viability assay) was under 1000 nM and the “level of p-STAT1(Ser727), p-STAT3(Tyr705), p-STAT5(Ser726)” value ([5]; MV-4-11, 30 nM up to 10 μM, 24 hours and 48 hours) was “dose-response down regulation”. For the same molecule, the “level of YAP, CYR61, CTGF, C-MYC, and MCL-1” value ([5]; MV-4-11, 48 hours) was “down regulate”, the IC50 [6] was 1 to 10 µM and the IC50 [7] was 1 to 10 µM. It also gave an IC50 [8] of 1 to 10 µM, an IC50 [9] of 1 to 10 µM and an IC50 [10] of 1 to 10 µM. The IC50 [11] was under 1000 nM, the “Growth of tumors (tumor volume)” value ([12]; 21 days) was “greatly inhibited” and the weight loss ([12]; during treatment) was under 5%. The IC50 [13] was under 300 nM.
